The text below walks through data of patent US11576380B2 (priority 2017, dated 2023).

The subject of assay [1] is Pyricularia oryzae. Put plainly: microbe, parasite or virus in culture. The class given is cell-based. As to conditions: for benzovindiflupyr (B) inhibition (%): Table 1; for benzovindiflupyr (B) inhibition (%) / azoxystrobin (B) inhibition (%): 72 hours; for azoxystrobin (B) inhibition (%): Table 2.
For assay [2], the system named is Mycosphaerella arachidis. Put plainly: Liquid culture test in well plates, Mycosphaerella arachidis syn. Cercospora arachidicola (peanut brown leaf spot), Example 6. Type of assay: cell-based. The note with it: Table 4, approximately 5-6 days. The method, then: The compositions according to the invention are tested for their biological (fungicidal) activity as dimethylsulfoxide (DMSO) solutions using one or more of the following protocols (Examples 2 to 8). A standard description of the liquid culture tests is provided in Example 1.
Mycelia fragments or conidia suspensions of a fungus, prepared either freshly from liquid cultures of the fungus or from cryogenic storage, are directly mixed into nutrient broth. DMSO solutions of the test compound (max. 10 mg/mL) is diluted with 0.025% Tween20 by factor 50 and 10 μL of this solution is pipetted into a microtiter plate (96-well format). The nutrient broth containing the fungal spores/mycelia fragments is then added to give an end concentration of the tested compound. The test plates are incubated in the dark at 24° C. and 96% relative humidity (rh). The inhibition of fungal growth is determined photometrically and visually after 3-7 days, depending on the pathosystem, and percent antifungal activity relative to the untreated check is calculated.
Conidia of the fungus from cryogenic storage were directly mixed into nutrient broth (PDB potato dextrose broth). After placing a DMSO solution of the test compositions into a microtiter plate (96-well format), the nutrient broth containing the fungal spores was added. The test plates were incubated at 24° C. and the inhibition of growth was determined photometrically after approximately 5-6 days.

Like-named read-outs stand apart in the source and are kept apart here.

Regarding `Cn1cc(C(=O)Nc2cccc3c2[C@@H]2CC[C@H]3C2=C(Cl)Cl)c(C(F)F)n1` (racemic) [benzovindiflupyr], the “benzovindiflupyr (B) inhibition (%)” value in assay [1] (benzovindiflupyr alone 0.0125 ppm) came out at 20%; in assay [1] (benzovindiflupyr alone 0.0250 ppm), 50%; in assay [1] (benzovindiflupyr alone 0.0500 ppm), 70%; in assay [1] (benzovindiflupyr alone 0.1000 ppm) it was 90%.
In the case of `N#Cc1c(Cl)c(Cl)c(Cl)c(C#N)c1Cl` [chlorothalonil], in assay [1] (Pyricularia oryzae, 72 h, read-out: chlorothalonil (B) inhibition (%), Table 3, chlorothalonil alone 0.2500 ppm), the inhibition – broadly, the relative decrease from the control value, in per cent – at 0.25 ppm was 0%. For the same molecule, the inhibition at 0.5 ppm in assay [1] (Pyricularia oryzae, 72 h, read-out: chlorothalonil (B) inhibition (%), Table 3, chlorothalonil alone 0.5000 ppm) is 0%. Also, in assay [1] (Pyricularia oryzae, 72 h, read-out: chlorothalonil (B) inhibition (%), Table 3, chlorothalonil alone 1.0000 ppm), the inhibition at 1 ppm was 20%.
On to `CON(C(=O)c1cn(C)nc1C(F)F)C(C)Cc1c(Cl)cc(Cl)cc1Cl` (stereo not drawn) [pydiflumetofen], for which the “pydiflumetofen (B) inhibition (%)” value was determined as 1% in assay [2] (pydiflumetofen alone 0.0025 ppm), 0% in assay [2] (pydiflumetofen alone 0.0050 ppm), 28% in assay [2] (pydiflumetofen alone 0.0100 ppm) and 70% in assay [2] (pydiflumetofen alone 0.0200 ppm).
Regarding `CO/C=C(/C(=O)OC)c1ccccc1Oc1cc(Oc2ccccc2C#N)ncn1` [azoxystrobin], the “azoxystrobin (B) inhibition (%)” value in assay [1] (azoxystrobin alone 0.0250 ppm), in assay [1] (azoxystrobin alone 0.0500 ppm), in assay [1] (azoxystrobin alone 0.1000 ppm) and in assay [1] (azoxystrobin alone 0.2000 ppm) was 0% each time.
Turning to `COc1ccnc(C(=O)N[C@@H](C)C(=O)O[C@@H](C)C(c2ccc(F)cc2)c2ccc(F)cc2)c1OC(C)=O` [florylpicoxamid, (1S)-2,2-bis(4-fluorophenyl)-1-methylethyl N-{[3-(acetyloxy)-4-methoxy-2-pyridyl]carbonyl}-L-alaninate], the inhibition at 0.0031 ppm in assay [1] (Pyricularia oryzae, 72 h, read-out: florylpicoxamid (A) inhibition (%), Table 1, florylpicoxamid alone 0.0031 ppm) came to 0%. The inhibition at 0.0063 ppm in assay [1] (Pyricularia oryzae, 72 h, read-out: florylpicoxamid (A) inhibition (%), Table 1, florylpicoxamid alone 0.0063 ppm) is 0%. Further, the inhibition at 0.0125 ppm in assay [1] (Pyricularia oryzae, 72 h, read-out: florylpicoxamid (A) inhibition (%), Table 1, florylpicoxamid alone 0.0125 ppm) came out at 0%. Further, the inhibition at 0.025 ppm in assay [1] (Pyricularia oryzae, 72 h, read-out: florylpicoxamid (A) inhibition (%), Table 1, florylpicoxamid alone 0.0250 ppm) is 0%; in assay [1] (Pyricularia oryzae, 72 h, read-out: florylpicoxamid (A) inhibition (%), Table 3, florylpicoxamid alone 0.0250 ppm) it was 0%; in assay [2] (Mycosphaerella arachidis, florylpicoxamid alone 0.0250 ppm) it was 4%. Further, the inhibition at 0.05 ppm in assay [1] (Pyricularia oryzae, 72 h, read-out: florylpicoxamid (A) inhibition (%), Table 1, florylpicoxamid alone 0.0500 ppm) was determined as 0%; in assay [1] (Pyricularia oryzae, 72 h, read-out: florylpicoxamid (A) inhibition (%), Table 3, florylpicoxamid alone 0.0500 ppm), 20%; in assay [2] (Mycosphaerella arachidis, florylpicoxamid alone 0.0500 ppm) it was 15%. Moreover, the inhibition at 0.1 ppm in assay [1] (Pyricularia oryzae, 72 h, read-out: florylpicoxamid (A) inhibition (%), Table 1, florylpicoxamid alone 0.1000 ppm) is 20%; in assay [1] (Pyricularia oryzae, 72 h, read-out: florylpicoxamid (A) inhibition (%), Table 2, florylpicoxamid alone 0.1000 ppm) it was 20%; in assay [1] (Pyricularia oryzae, 72 h, read-out: florylpicoxamid (A) inhibition (%), Table 3, florylpicoxamid alone 0.1000 ppm) it was 30%; in assay [2] (Mycosphaerella arachidis, florylpicoxamid alone 0.1000 ppm), 38%. The inhibition at 0.2 ppm was found to be 50% in assay [1] (Pyricularia oryzae, 72 h, read-out: florylpicoxamid (A) inhibition (%), Table 2, florylpicoxamid alone 0.2000 ppm) and 60% in assay [1] (Pyricularia oryzae, 72 h, read-out: florylpicoxamid (A) inhibition (%), Table 3, florylpicoxamid alone 0.2000 ppm).
